Results published in article PMC7765409 (International Journal of Molecular Sciences, 2020).
Read-outs that look alike come from different tables or passages of the source.

How the values were obtained:
[1] = tested on: lipid droplet accumulation in TG/FA-treated hiPSC-Hep; assay: hiPSC-Hep ER-stress (TG/FA) induced lipid droplet accumulation high-content assay, integrated spot signal (BODIPY 493/503); format: cell-based, human; conditions: for IC50: Homo sapiens, cells pre-treated 24 h and co-treated additional 18 h with TG/FA
Experimental: Cryopreserved hiPSC-derived hepatocytes (iCell Hepatocytes 2.0; Cellular Dynamics International Madison, WI) plated at a density of 36 K/well in 384-well on collagen I coated Corning Biocoat 384-well plates (BD Biosciences, 101306), were cultured to promote hepatic differentiation and maturation into hepatic-like cells as previously described. Hepatocytes were plated according to the manufacturer’s protocol in a volume of 50 µL/well using BioTek^TM Microflo^TM select dispenser (#7170011, BioTek Instruments) for high-throughput and high-content analysis assay (HT/HCA) drug discovery. After plating cells were cultured according to vendor specifications in a cell culture incubator at 37 °C, 5% CO2 for 3–4 h. Then, 40 µL spent medium was aspirated using multi-channel automated pipette handling system (Integra ViaFlo 96/384) and replaced with 40 µL (80% exchange) of fresh plating medium. Approximately 24 h post-plating 80% of medium was replaced every day thereafter. At day 5 of differentiation, 40 µL/well spent medium was replaced with maintenance medium (MM) consisting of William’s E medium (Thermo Fisher Scientific) supplemented with 0.1 µM dexamethasone and hepatocyte maintenance supplement pack (Thermo Fisher Scientific) for an additional 2–3 days before HCA. The overview of automated HT system for hiPSC-derived hepatocytes differentiation, staining and image analysis for phenotypic screening is depicted in Figure S2. Primary screening hit confirmation and dose response studies were performed on different batches of hiPSC-derived hepatocytes.
To induce hepatic triglycerides (TAG) accumulation, before staining, cells were treated with 20 μL of 2× FA mixture, consisting of different proportions of oleic acid (OA-BSA, 25 µM, Sigma, #O3008), palmitic acid (PA-BSA, 200 µM, Agilent Technologies, #102720100) and thapsigargin (TG, 1 µM, Abcam, #120286) with a total volume of 40 μL/well. The TG/FA mixture was dispensed with BioTek^TM Microflo^TM select dispenser (#7170011, BioTek Instruments) and incubated for 18 h. Next, to label TAG accumulation stored into cytoplasmic lipid droplets, upon treatment, living cells were washed two times with warm Dulbecco’s Phosphate-Buffered Saline 1X (PBS, Corning, #21-031CV) with a handheld 384-channel electronic pipette device and then incubated for 15 min with a lipophilic dye, BODIPY 493/503 (8 ug/mL Life technologies, #D3922-green), in PBS at 37 °C. BODIPY (493/503) has become the standard dye utilized by scientists to study lipid droplets in live cells. After three washes with PBS cells were fixed with 4% paraformaldehyde methanol-free (PFA, Electron Microscopy Science, #15710) in PBS for 15 min at room temperature (RT). Cell health was monitored by Hoechst 33342 (10 ug/mL, Molecular Probe, #H21492) staining in PBS for nuclear count. After TAG staining the 384-assay plates were loaded in an automated confocal microscope with Opera High Content Imaging System (PerkinElmer, Waltham, MA, USA). Dyes were excited and images were captured on the Hoechst 3342 and Alexa Fluor 488 channels and signals were collected with a long pass filter 410 and 505 nm, for nuclei and TAG, respectively, at objective 20× air objective for HCA. To capture enough cells (>600) for the analysis, eight fields per well were imaged. Hoechst 33342 fluorescence was used to identify the nuclear region and cell counts. To assess intracellular fat deposits, BODIPY 493/503 fluorescence intensity was measured inside the cytoplasm region.
For the HCA screen, compounds tested for their inhibitory effects, were used as single dose at a 10 μM final concentration of compound in DMSO in each well (0.1% DMSO) in 20 μL of maintenance medium. Prior to compound addition, 30 µL/well of medium was removed from hiPSC-Hep cells screening plates with ViaFlo ([…]). Pre-spotted 80 nL of 10 mM compound were diluted to 20 μM (0.2% DMSO) in 40 μL of maintenance medium in the source 384-well plate. […]

FXR target genes = assay: transcriptomic (RNA-seq) analysis of OCA pre-incubated TG/FA-treated hiPSC-Hep; format: cell-based, human; conditions: TG/FA+OCA vs TG/FA
Experimental: The phenotypic assay was measured and quantified by BODIPY 493/503-stained neutral lipid droplets multiplexed with Hoechst dye to detect viable cell count, as shown by the process in Supplementary Figure S2. Obeticholic acid (OCA), a clinically advanced therapeutic and farnesoid X receptor (FXR) agonist evaluated in phase III trials for the treatment of NASH [40], was used as an inhibitor control of lipid accumulation (Figure 1A). […] Our results are in accordance with therapeutic plasma concentrations of OCA (0.290 µM) and with studies performed in a human liver in vitro system (0.5 µM). […] FXR target genes, including fibroblast growth factor 19 (FGF19), solute carrier family 51 subunit Beta (SLC51B), cytochrome P450 7A1 (CYP7A1) and perilipin 1 (PLIN1) are regulated by OCA under our treatment conditions.
Z’ = 1 − (3 SD of sample group + 3 SD of negative control)/(mean of sample group−mean of negative control). FA/TG-treated wells were defined as general sample group and BSA-treated wells were defined as negative controls for calculating Z’-factor. In our assay, the Z’ criteria were as follows: Z’ = 0.5–1.0 corresponds to an excellent assay; Z’ = 0–0.5 corresponds to a suboptimal assay; Z’ < 0 corresponds to an unsuccessful assay. Percent inhibition of lipid accumulation was calculated based on the positive (BSA-treated) and negative (FA/TG-treated) controls on each plate: % inhibition = 100 * [(compound value–AVEneg)/(AVEpos–AVEneg)]. RNA-seq data were analyzed by iPathwayGuide (Advaita Bioinformatics: http://www.advaitabio.com/ipathwayguide.html) as described in [35]. Differences between two groups were analyzed using Student’s t-tests. Fold-change expression values obtained from RT-qPCR were analyzed by one-way analysis of variance (ANOVA) followed by post hoc comparisons of group means with the Tukey’s multiple comparison tests at an overall confidence level of 95% using Prism software (GraphPad).

DGAT2 mRNA = tested on: DGAT2 mRNA; set-up: method as in PMID 30254132; conditions: after 4 and 18 h treatment with thapsigargin and free-fatty acids; cited from earlier work
[2] = set-up: method as in PMID 29226620; conditions: cited from earlier work
[3] = tested on: oleic acid-induced lipid droplet accumulation in hiPSC-Hep; assay: oleic acid-induced lipid droplet accumulation in hiPSC-Hep; format: cell-based, human; conditions: exogenous oleic acid
Experimental: (§1) A monolayer of hiPSC-Hep, with hepatocyte-like morphology, gene expression and function, was used as a cell model for induction of steatosis and high-content analysis to detect neutral lipid droplet accumulation and inhibition. […] Incubation of the cells with a saturated fluorescently labeled fatty acid analog confirmed localization into neutral lipid vacuoles (Supplementary Figure S1C–F).

[4] = tested on: palmitic acid-induced lipid accumulation in hiPSC-Hep; assay: palmitic acid-induced lipid accumulation in hiPSC-Hep; format: cell-based, human; conditions: exogenous palmitic acid
Experimental: as §1

| Structure (SMILES) | IC50 ([1]; read-out: half maximal inhibitory concentration (IC50) for reduction of lipid accumulation) [nM] | IC50 ([1]; read-out: pIC50 for reduction of lipid accumulation (converted)) [nM] | lipid content of lipid droplet-stained cells ([1]; OCA at 20 µM in TG/FA-treated cells vs BSA-treated control) | CYP7A1 gene regulation (FXR target genes) | FGF19 gene regulation (FXR target genes) | PLIN1 gene regulation (FXR target genes) | SLC51B gene regulation (FXR target genes) | effect on DGAT2 expression (DGAT2 mRNA) | therapeutic plasma concentrations [2] [µM] | inhibition of oleic acid-induced lipid droplet accumulation [3] | inhibition of oleic acid-induced lipid droplet accumulation ([3]; listed as triacsin C) | inhibition of palmitic acid-induced lipid accumulation [4] |
| --- | --- | --- | --- | --- | --- | --- | --- | --- | --- | --- | --- | --- |
| CC[C@H]1[C@@H](O)[C@@H]2[C@H](CC[C@]3(C)[C@@H]([C@H](C)CCC(=O)O)CC[C@@H]23)[C@@]2(C)CC[C@@H](O)C[C@@H]12 [OCA, Obeticholic acid] | 630 | 631 | reduced lipid content to control levels | downregulation | upregulation | upregulation | downregulation | significantly inhibited | 0.290 | – | – | – |
| CCC/C=C/C/C=C/C=C/C=N/NN=O [Triacsin C] | – | – | – | – | – | – | – | – | – | fully inhibits | completely inhibits | did not inhibit |
